Measured values: the NIST ThermoML archive (doi:10.1021/je060355j)

Legend:
[1] = xn = mol fraction of the nth substance listed; details: 101.32 kPa, Liquid
[2] = excess molar enthalpy (molar enthalpy of mixing); xn = mol fraction of the nth substance listed; details: 101.32 kPa, Liquid

CCOC=O [ethyl methanoate] + CCCCCC
Details	excess molar enthalpy [kcal/mol]	mass density [kg/m3]
[1], 291.15 K, x1 = 0.0495	–	667.8
[1], 291.15 K, x1 = 0.1025	–	675.4
[1], 291.15 K, x1 = 0.1497	–	682.8
[1], 291.15 K, x1 = 0.2049	–	692.1
[1], 291.15 K, x1 = 0.2531	–	700.4
[1], 291.15 K, x1 = 0.3068	–	710.6
[1], 291.15 K, x1 = 0.3937	–	728.2
[1], 291.15 K, x1 = 0.5016	–	753
[1], 291.15 K, x1 = 0.6039	–	780
[1], 291.15 K, x1 = 0.6996	–	808.2
[1], 291.15 K, x1 = 0.7504	–	824.6
[1], 291.15 K, x1 = 0.8029	–	842.4
[1], 291.15 K, x1 = 0.9016	–	880.3
[1], 291.15 K, x1 = 0.9065	–	882.4
[1], 291.15 K, x1 = 0.9522	–	901.9
[1], 291.15 K, x1 = 0.958	–	905
[1], 291.15 K, x1 = 1	–	924.7
[1], 298.15 K, x1 = 0.0777	–	665.63
[1], 298.15 K, x1 = 0.1291	–	673.25
[1], 298.15 K, x1 = 0.1715	–	679.95
[1], 298.15 K, x1 = 0.2501	–	693.44
[1], 298.15 K, x1 = 0.327	–	707.73
[1], 298.15 K, x1 = 0.4765	–	739.84
[1], 298.15 K, x1 = 0.5354	–	754.13
[1], 298.15 K, x1 = 0.5955	–	769.95
[1], 298.15 K, x1 = 0.6441	–	783.83
[1], 298.15 K, x1 = 0.6993	–	800.39
[1], 298.15 K, x1 = 0.7956	–	832.38
[1], 298.15 K, x1 = 0.884	–	865.42
[1], 298.15 K, x1 = 0.9643	–	898.98
[1], 298.15 K, x1 = 1	–	915.16
[1], 308.15 K, x1 = 0.0485	–	651.9
[1], 308.15 K, x1 = 0.1103	–	660.5
[1], 308.15 K, x1 = 0.1539	–	667.2
[1], 308.15 K, x1 = 0.2548	–	683.8
[1], 308.15 K, x1 = 0.3998	–	711.6
[1], 308.15 K, x1 = 0.4915	–	731.9
[1], 308.15 K, x1 = 0.5935	–	757.8
[1], 308.15 K, x1 = 0.6998	–	788
[1], 308.15 K, x1 = 0.7971	–	819.9
[1], 308.15 K, x1 = 0.9063	–	860.7
[1], 308.15 K, x1 = 0.9488	–	878.7
[1], 308.15 K, x1 = 1	–	902.07
[1], 318.15 K, x1 = 0.0476	–	642.18
[1], 318.15 K, x1 = 0.0875	–	647.84
[1], 318.15 K, x1 = 0.1044	–	649.54
[1], 318.15 K, x1 = 0.1471	–	655.88
[1], 318.15 K, x1 = 0.2199	–	667.46
[1], 318.15 K, x1 = 0.3041	–	681.93
[1], 318.15 K, x1 = 0.4061	–	701.97
[1], 318.15 K, x1 = 0.5293	–	729.7
[1], 318.15 K, x1 = 0.5869	–	744.1
[1], 318.15 K, x1 = 0.6984	–	775.52
[1], 318.15 K, x1 = 0.7476	–	790.78
[1], 318.15 K, x1 = 0.7932	–	805.56
[1], 318.15 K, x1 = 0.8873	–	840.19
[1], 318.15 K, x1 = 0.9692	–	874.21
[1], 318.15 K, x1 = 1	–	888.42
[2], 291.15 K, x1 = 0.092	0.107	–
[2], 291.15 K, x1 = 0.209	0.228	–
[2], 291.15 K, x1 = 0.3175	0.305	–
[2], 291.15 K, x1 = 0.4075	0.346	–
[2], 291.15 K, x1 = 0.4677	0.364	–
[2], 291.15 K, x1 = 0.5161	0.368	–
[2], 291.15 K, x1 = 0.5681	0.365	–
[2], 291.15 K, x1 = 0.6185	0.344	–
[2], 291.15 K, x1 = 0.6714	0.319	–
[2], 291.15 K, x1 = 0.7272	0.286	–
[2], 291.15 K, x1 = 0.7841	0.243	–
[2], 291.15 K, x1 = 0.843	0.188	–
[2], 291.15 K, x1 = 0.9022	0.127	–
[2], 291.15 K, x1 = 0.9514	0.0729	–
[2], 318.15 K, x1 = 0.1003	0.149	–
[2], 318.15 K, x1 = 0.1895	0.244	–
[2], 318.15 K, x1 = 0.2842	0.323	–
[2], 318.15 K, x1 = 0.3713	0.367	–
[2], 318.15 K, x1 = 0.4495	0.389	–
[2], 318.15 K, x1 = 0.5137	0.394	–
[2], 318.15 K, x1 = 0.5599	0.387	–
[2], 318.15 K, x1 = 0.5991	0.374	–
[2], 318.15 K, x1 = 0.6795	0.337	–
[2], 318.15 K, x1 = 0.7593	0.281	–
[2], 318.15 K, x1 = 0.8299	0.216	–
[2], 318.15 K, x1 = 0.8814	0.155	–
[2], 318.15 K, x1 = 0.9215	0.105	–
[2], 318.15 K, x1 = 0.966	0.051	–

CCCOC=O [propyl methanoate] + CCCCCC
Details	excess molar enthalpy [kcal/mol]	mass density [kg/m3]
[1], 291.15 K, x1 = 0.0544	–	670.1
[1], 291.15 K, x1 = 0.0893	–	676
[1], 291.15 K, x1 = 0.1509	–	687.4
[1], 291.15 K, x1 = 0.2001	–	696.5
[1], 291.15 K, x1 = 0.248	–	705.8
[1], 291.15 K, x1 = 0.2521	–	706.6
[1], 291.15 K, x1 = 0.3979	–	737.6
[1], 291.15 K, x1 = 0.5017	–	761.8
[1], 291.15 K, x1 = 0.6122	–	789.6
[1], 291.15 K, x1 = 0.6985	–	813.1
[1], 291.15 K, x1 = 0.7473	–	827
[1], 291.15 K, x1 = 0.8013	–	842.8
[1], 291.15 K, x1 = 0.8499	–	857.8
[1], 291.15 K, x1 = 0.9057	–	875.5
[1], 291.15 K, x1 = 0.9568	–	892.9
[1], 291.15 K, x1 = 1	–	907.8
[1], 298.15 K, x1 = 0.0787	–	668.91
[1], 298.15 K, x1 = 0.1478	–	681.52
[1], 298.15 K, x1 = 0.2237	–	695.63
[1], 298.15 K, x1 = 0.2941	–	709.36
[1], 298.15 K, x1 = 0.3597	–	722.93
[1], 298.15 K, x1 = 0.4297	–	738.37
[1], 298.15 K, x1 = 0.4878	–	751.68
[1], 298.15 K, x1 = 0.5453	–	765.36
[1], 298.15 K, x1 = 0.6019	–	779.74
[1], 298.15 K, x1 = 0.6599	–	794.74
[1], 298.15 K, x1 = 0.7154	–	810
[1], 298.15 K, x1 = 0.765	–	824.15
[1], 298.15 K, x1 = 0.812	–	838.34
[1], 298.15 K, x1 = 0.8656	–	854.66
[1], 298.15 K, x1 = 0.921	–	872.18
[1], 298.15 K, x1 = 0.9567	–	884.05
[1], 298.15 K, x1 = 1	–	899.08
[1], 308.15 K, x1 = 0.0693	–	657.5
[1], 308.15 K, x1 = 0.1125	–	665.1
[1], 308.15 K, x1 = 0.1993	–	680.76
[1], 308.15 K, x1 = 0.3036	–	701.12
[1], 308.15 K, x1 = 0.3975	–	720.81
[1], 308.15 K, x1 = 0.5069	–	745.56
[1], 308.15 K, x1 = 0.5902	–	765.82
[1], 308.15 K, x1 = 0.7035	–	795.66
[1], 308.15 K, x1 = 0.8034	–	824.55
[1], 308.15 K, x1 = 0.9002	–	854.72
[1], 308.15 K, x1 = 0.9482	–	870.44
[1], 308.15 K, x1 = 1	–	888.36
[1], 318.15 K, x1 = 0.0796	–	648.93
[1], 318.15 K, x1 = 0.1547	–	661.76
[1], 318.15 K, x1 = 0.2278	–	674.93
[1], 318.15 K, x1 = 0.2909	–	687.08
[1], 318.15 K, x1 = 0.3611	–	701.46
[1], 318.15 K, x1 = 0.4273	–	715.75
[1], 318.15 K, x1 = 0.487	–	729.26
[1], 318.15 K, x1 = 0.5747	–	750.24
[1], 318.15 K, x1 = 0.6031	–	757.34
[1], 318.15 K, x1 = 0.6617	–	772.47
[1], 318.15 K, x1 = 0.7118	–	785.91
[1], 318.15 K, x1 = 0.7661	–	801.18
[1], 318.15 K, x1 = 0.8123	–	814.59
[1], 318.15 K, x1 = 0.8602	–	829.22
[1], 318.15 K, x1 = 0.9109	–	845.53
[1], 318.15 K, x1 = 0.9581	–	860.97
[1], 318.15 K, x1 = 1	–	875.32
[2], 291.15 K, x1 = 0.0969	0.118	–
[2], 291.15 K, x1 = 0.186	0.187	–
[2], 291.15 K, x1 = 0.2656	0.235	–
[2], 291.15 K, x1 = 0.3316	0.264	–
[2], 291.15 K, x1 = 0.3921	0.282	–
[2], 291.15 K, x1 = 0.4458	0.289	–
[2], 291.15 K, x1 = 0.4941	0.29	–
[2], 291.15 K, x1 = 0.5356	0.287	–
[2], 291.15 K, x1 = 0.5758	0.274	–
[2], 291.15 K, x1 = 0.6321	0.258	–
[2], 291.15 K, x1 = 0.6905	0.23	–
[2], 291.15 K, x1 = 0.7533	0.195	–
[2], 291.15 K, x1 = 0.8171	0.154	–
[2], 291.15 K, x1 = 0.885	0.0993	–
[2], 291.15 K, x1 = 0.9453	0.0458	–
[2], 318.15 K, x1 = 0.0848	0.113	–
[2], 318.15 K, x1 = 0.1889	0.202	–
[2], 318.15 K, x1 = 0.2934	0.268	–
[2], 318.15 K, x1 = 0.3854	0.305	–
[2], 318.15 K, x1 = 0.4624	0.32	–
[2], 318.15 K, x1 = 0.521	0.32	–
[2], 318.15 K, x1 = 0.5945	0.309	–
[2], 318.15 K, x1 = 0.6631	0.284	–
[2], 318.15 K, x1 = 0.7368	0.245	–
[2], 318.15 K, x1 = 0.8154	0.19	–
[2], 318.15 K, x1 = 0.8906	0.124	–
[2], 318.15 K, x1 = 0.9523	0.0594	–
